{"source": "patent US20110158969A1", "about": "“COMPOSITIONS AND METHODS FOR USING STROMAL CELLS TO ENHANCE TREATMENT OF CENTRAL NERVOUS SYSTEM INJURIES” (HENRY FORD HEALTH SYSTEM, priority 2008, published 2011)", "key": {"[1]": {"system": "Rat Intracerebral Hemorrhage (ICH) Model", "experiment": "Neurological severity score (NSS) test in rat ICH model", "type": "in vivo", "conditions": "end of second week (day 14) after ICH; vs human fibroblast control group; P<0.05 significant", "description": "(§1) Functional neurological tests. Functional neurological outcomes were measured by the neurological severity score test (NSS) (Chen et al., 2001) and the corner turn test (Zhang et al., 2002), as previously described in Seyfried et al., 2006. Statistical analysis. Statistical analysis of functional scores was performed using the Student's two-tailed t-test for independent samples."}, "[2]": {"system": "Rat Intracerebral Hemorrhage (ICH) Model", "experiment": "Corner turn test in rat ICH model", "type": "in vivo", "conditions": "end of second week (day 14) after ICH; vs human fibroblast control group; P<0.05 significant", "description": "as §1"}, "Rat ICH Model": {"system": "Rat ICH Model", "experiment": "Striatal tissue loss (H & E staining, image analysis) in rat ICH model", "type": "in vivo", "conditions": "14 days after ICH; relative to contralateral striatum; mean±standard error; mannitol 1.5 g/kg iv, 1 million cells intraarterial", "protocol": "Thirty-six male Wistar rats weighing from 270 to 320 grams were used for intracerebral hemorrhage studies. Stereotactic stabilization and localization were used in the rats under general anesthesia as previously described (Seyfried et al., 2006). ICH was induced by injecting 100 μl of autologous blood, obtained from the femoral vein, into the right striatum at a steady infusion rate of 10 μl per minute (Seyfried et al., 2004). Twenty four hours after ICH, the animals were divided into four experimental groups. Group 1 received only intraarterial (via internal carotid artery) injection of 1 million human primary fibroblasts in phosphate-buffered saline (PBS) as a control. Group 2 received intravenous injection of mannitol at a dose of 1.5 g/kg in PBS via the tail vein. Group 3 received intraarterial (internal carotid artery) injection of 1 million hBMSCs in PBS. Group 4 received intravenous injection of mannitol at a dose of 1.5 g/kg followed 10 minutes later by intraarterial injection of 1 million hBMSCs in PBS. All treatments were administered 24 hours after induction of ICH. All rats also received a daily intraperitoneal injection of 100 mg/kg BrdU starting at day 1 after ICH for 14 days.\nHistology and immunohistochemistry. […] Percentage of the striatal tissue loss compared to the contralateral striatum was calculated using an image analysis system (Data Translation, Marlboro, Mass.). […]"}, "[3]": {"system": "BrdU-positive cells in the boundary around the lesion", "experiment": "BrdU immunostaining, proliferating cells around the lesion", "type": "in vivo, rat", "conditions": "14 days after ICH; vs control group; P<0.05"}}, "data": [{"compound": "OC[C@@H](O)[C@@H](O)[C@H](O)[C@H](O)CO", "note": "[mannitol]", "values": [{"measurement": "functional neurological outcome assessed by NSS", "setting": "[1]", "value": "failed to show any statistically significant neurological improvement"}, {"measurement": "functional neurological outcome assessed by corner turn test", "setting": "[2]", "value": "failed to show any statistically significant neurological improvement"}, {"measurement": "percentage loss of striatal tissues on the side of hemorrhage", "setting": "Rat ICH Model", "value": "25.9±1.75", "unit": "%"}, {"measurement": "BrdU positive staining cells around the injured site", "setting": "[3]", "value": "significantly increased the BrdU labeling"}]}]}
